Our source for the IC50 values is US20260159500A1, “KINESIN KIF18A INHIBITOR AND USE THEREOF” (SHANGHAI APEIRON THERAPEUTICS COMPANY LIMITED, priority 2022, published 2026).

In one test the test system is OVCAR3 cells. The test can be described thus: Cell proliferation activity test in OVCAR3 cells (CyQUANT Direct). The following applies: Homo sapiens, OVCAR-3, 72 h, 3 days incubation, CyQUANT fluorescence detection, read-out: OVCAR-3_IC50_nM. It is filed as cell-based. How it is done:
OVCAR3 cells were purchased from Nanjing Cobioer Biosciences Co., Ltd. RPMI-1640 medium, fetal bovine serum, and the CyQUANT Direct Cell Proliferation Assay kit were purchased from Thermo Fisher Scientific, USA; 96-well cell culture plates were sourced from Corning, USA.
Culture OVCAR3 cells with RPMI-1640 medium containing 10% fetal bovine serum and incubate them in a 5% CO2 incubator at 37° C. Only cells in the logarithmic growth phase can be used for the test.
Inoculate OVCAR3 cells into a 96-well cell culture plate at 90 μL per well and incubate overnight in a 5% CO2 incubator at 37° C. Dissolve the compound powder in DMSO to prepare a stock solution of 10 mM. Then perform gradient dilution for the compounds in the microplate to achieve a final concentration of 0-10 μM. Add 10 μL of cell culture medium containing compounds to each well to make the final DMSO content 0.2%. Incubate the cell plates in a 5% CO2 incubator at 37° C. for 3 days. Add 100 μL of CyQUANT detection reagent to each well, react at 37° C. for 60 min, and perform fluorescence detection using the PerkinElmer Envision.

Another test has as its system HT29 cells. The test is described as follows: CyQuant cell proliferation activity test in HT29 cells. It is filed as cell-based. The following applies: Homo sapiens, HT-29, 72 h, 2000 cells per well, 3 days incubation, IC50 by XLFIT, read-out: HT29_IC50_nM. How it is done: HT29 cells were purchased from Nanjing Cobioer Biosciences Co., Ltd.; RPMI-1640 medium, fetal bovine serum, Trypsin-EDTA (0.25%), 96-well plates, and CyQuant reagents were purchased from ThermoFisher (USA); DMSO was purchased from SIGMA (USA).
Culture HT29 cells with RPMI-1640 containing 10% fetal bovine serum under the condition of 37° C. and 5% CO2. Only cells in the logarithmic growth phase can be used for the test.
Use the CyQuant reagent to detect the proliferation inhibitory activity of compounds on HT29 cells. Adjust the cell density and inoculate 100 μL per well into the 96-well plate (HT29 at 2000 cells per well), then incubate overnight under the condition of 37° C. and 5% CO2. Add compounds of various target concentrations (initial concentration of 3000 nM, 3-fold dilution, 9 concentration gradients), and make the DMSO content 0.2%. Incubate the cell plates at 37° C. and 5% CO2 for 3 days. Incubate with CyQuant reagent for 1 h, read the plate by Envision, and calculate IC50 using XLFIT.

In test [1] the target is T1, Human KIF18A (amino acid sequence 1-417) (Homo sapiens, UniProt Q8NI77).
T1 construct: purchased Viva Biotech (Shanghai) Ltd
T1 sequence (Q8NI77 1-417): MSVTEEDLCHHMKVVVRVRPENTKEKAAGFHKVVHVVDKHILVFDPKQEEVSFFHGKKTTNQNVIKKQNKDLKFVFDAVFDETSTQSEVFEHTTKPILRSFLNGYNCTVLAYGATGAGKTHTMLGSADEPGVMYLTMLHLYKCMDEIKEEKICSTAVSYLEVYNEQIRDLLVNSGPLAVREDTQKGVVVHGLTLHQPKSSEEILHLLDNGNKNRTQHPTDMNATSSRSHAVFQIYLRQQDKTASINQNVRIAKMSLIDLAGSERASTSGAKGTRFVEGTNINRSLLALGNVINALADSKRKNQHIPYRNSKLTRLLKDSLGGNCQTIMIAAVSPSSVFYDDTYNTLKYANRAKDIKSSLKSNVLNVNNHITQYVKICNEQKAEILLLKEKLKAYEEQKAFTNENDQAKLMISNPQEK
The test is described as follows: Enzymatic activity test (ADP-Glo, microtubule-stimulated KIF18A ATPase). It is filed as biochemical. Conditions: 60 μg/mL microtubules, 25 μM ATP, 2.5 nM KIF18A protein, 120 min at ambient temperature, read-out: KIF18A_nM. How it is done: Human KIF18A (amino acid sequence 1-417) was purchased from Viva Biotech (Shanghai) Ltd.; the ADP-Glo™ protein kinase kit was acquired from Promega, USA; tubulin was sourced from Cytoskeleton, USA; and the 384-well assay plate and Envision multifunctional microplate reader were obtained from PerkinElmer, USA.
Dissolve the compound powder in DMSO to prepare a stock solution of 10 mM. Then perform gradient dilution for the compounds in the microplate to achieve a final concentration of 0-10 μM. Then, add 2.5 μL each of tubulin, compound, ATP, and KIF18A protein to the microplate in sequence for reaction at ambient temperature for 120 min. The final concentrations in the enzyme reaction are 60 μg/mL for microtubules, 25 μM for ATP, and 2.5 nM for KIF18A protein. After the enzyme reaction, add 10 μL of ADP-GLO reaction reagent to each well and incubate at ambient temperature for 30 min. After that, add 20 μL of detection reagent to each well and incubate at ambient temperature for 30 min in the dark. Finally, perform chemiluminescence detection using the PerkinElmer Envision.

Take `O=C(Nc1nc2c(c(N3CCC(F)(F)CC3)n1)COC2)c1ccc(NS(=O)(=O)CCO)cc1N1CCC2(CC1)CC2` [Example 4, N-(4-(4,4-difluoropiperidin-1-yl)-5,7-dihydrofuro[3,4-d]pyrimidin-2-yl)-4-(2-hydroxyethylsulfonamido)-2-(6-azaspiro[2.5]octan-6-yl)benzamide]: the results for the IC50 (with OVCAR3 cells; in the test with HT29 cells; in test [1]) were 1350 nM, 2020 nM and 29 nM, respectively.
Regarding `O=C(Nc1cc2c(c(N3CCC(F)(F)CC3)n1)COC2)c1ccc(NS(=O)(=O)CCO)cc1N1CCC2(CC1)CC2` [Example 5, N-(4-(4,4-difluoropiperidin-1-yl)-1,3-dihydrofuro[3,4-c]pyridin-6-yl)-4-(2-hydroxyethylsulfonamido)-2-(6-azaspiro[2.5]octan-6-yl)benzamide], the IC50 in the test with OVCAR3 cells was determined as 6 nM; in the test on HT29 cells it was 7 nM; in test [1] it was 28 nM.
The matching figures for `O=C(Nc1nc2c(c(N3CCC(F)(F)CC3)n1)CNC2)c1ccc(NS(=O)(=O)CCO)cc1N1CCC2(CC1)CC2` [Example 7, N-(4-(4,4-difluoropiperidin-1-yl)-6,7-dihydro-5H-pyrrolo[3,4-d]pyrimidin-2-yl)-4-(2-hydroxyethylsulfonamido)-2-(6-azaspiro[2.5]octan-6-yl)benzamide]: greater than 10000 nM, greater than 10000 nM and 100 nM.
Regarding `CN1Cc2nc(NC(=O)c3ccc(NS(=O)(=O)CCO)cc3N3CCC4(CC3)CC4)nc(N3CCC(F)(F)CC3)c2C1` [Example 8, N-(4-(4,4-difluoropiperidin-1-yl)-6-methyl-6,7-dihydro-5H-pyrrolo[3,4-d]pyrimidin-2-yl)-4-(2-hydroxyethylsulfonamido)-2-(6-azaspiro[2.5]octan-6-yl)benzamide], the IC50 was greater than 3000 nM with OVCAR3 cells, greater than 3000 nM in the test with HT29 cells and 280 nM in test [1].
Consider `CC1OCc2c1cc(NC(=O)c1ccc(NS(=O)(=O)CCO)cc1N1CCC3(CC1)CC3)nc2N1CCC(F)(F)CC1` (stereo not shown) [Example 9, N-(4-(4,4-difluoropiperidin-1-yl)-1-methyl-1,3-dihydrofuro[3,4-c]pyridin-6-yl)-4-((2-hydroxyethyl)sulfonamido)-2-(6-azaspiro[2.5]octan-6-yl)benzamide], for which the IC50 in the test with OVCAR3 cells came out at 55 nM; with HT29 cells, 37 nM; in test [1], 49 nM.
For `CCC1(C)OCc2c1cc(NC(=O)c1ccc(NS(=O)(=O)CCO)cc1N1CCC3(CC1)CC3)nc2N1CCC(F)(F)CC1` (stereo not shown) [Example 10, N-(4-(4,4-difluoropiperidin-1-yl)-1-ethyl-1-methyl-1,3-dihydrofuro[3,4-c]pyridin-6-yl)-4-(2-hydroxyethylsulfonamido)-2-(6-azaspiro[2.5]octan-6-yl)benzamide] the same measures were 614 nM, 1270 nM and 2750 nM.
Turning to `O=C(Nc1cn2cccc2c(N2CCC(F)(F)CC2)n1)c1ccc(NS(=O)(=O)CCO)cc1N1CCC2(CC1)CC2` [Example 11, N-(1-(4,4-difluoropiperidin-1-yl)pyrrolo[1,2-a]pyrazin-3-yl)-4-(2-hydroxyethylsulfonamido)-2-(6-azaspiro[2.5]octan-6-yl)benzamide], the results for the IC50 (in the test with OVCAR3 cells; in the test on HT29 cells; in test [1]) were 28 nM, 28 nM and 191 nM, respectively.
Take `Cc1ncc2c(N3CCC(F)(F)CC3)nc(NC(=O)c3ccc(NS(=O)(=O)CCO)cc3N3CCC4(CC3)CC4)cn12` [Example 12, N-(8-(4,4-difluoropiperidin-1-yl)-3-methylimidazo[1,5-a]pyrazin-6-yl)-4-(2-hydroxyethylsulfonamido)-2-(6-azaspiro[2.5]octan-6-yl)benzamide]: the IC50 in the test on OVCAR3 cells was 80 nM; with HT29 cells, 102 nM; in test [1], 80 nM.
On to `O=C(Nc1cn2ccnc2c(N2CCC(F)(F)CC2)n1)c1ccc(NS(=O)(=O)CCO)cc1N1CCC2(CC1)CC2` [Example 13, N-(8-(4,4-difluoropiperidin-1-yl)imidazolo[1,2-a]pyrazin-6-yl)-4-((2-hydroxyethyl)sulfonamide)-2-(6-azaspiro[2.5]octan-6-yl)benzamide], for which the IC50 was found to be 9 nM in the test on OVCAR3 cells, 13 nM with HT29 cells and 27 nM in test [1].
Turning to `O=C(Nc1cc(N2CCC(F)(F)CC2)c2nccn2c1)c1ccc(NS(=O)(=O)CCO)cc1N1CCC2(CC1)CC2` [Example 14, N-(8-(4,4-difluoropiperidin-1-yl)imidazo[1,2-a]pyridin-6-yl)-4-((2-hydroxyethyl)sulfonamido)-2-(6-azaspiro[2.5]oct-6-yl)benzamide], the values for the IC50 (in the test on OVCAR3 cells; with HT29 cells; in test [1]) were 9 nM, 17 nM and 32 nM, respectively.
For `Cc1nc2c(N3CCC(F)(F)CC3)nc(NC(=O)c3ccc(NS(=O)(=O)CCO)cc3N3CCC4(CC3)CC4)cn2c1C` [Example 15] the same measures were 71 nM, 97 nM and 205 nM.
The matching figures for `O=C(Nc1cn2ncnc2c(N2CCC(F)(F)CC2)n1)c1ccc(NS(=O)(=O)CCO)cc1N1CCC2(CC1)CC2` [Example 16]: 33 nM, 56 nM and 29 nM.
For `O=C(Nc1cn2nccc2c(N2CCC(F)(F)CC2)n1)c1ccc(NS(=O)(=O)CCO)cc1N1CCC2(CC1)CC2` [Example 17], the IC50 worked out at 20 nM with OVCAR3 cells, 30 nM in the test on HT29 cells and 28 nM in test [1].
As to `O=C(Nc1cc(N2CCC(F)(F)CC2)c2ncnn2c1)c1ccc(NS(=O)(=O)CCO)cc1N1CCC2(CC1)CC2` [Example 18], the IC50 came out at 16 nM in the test with OVCAR3 cells, 35 nM with HT29 cells and 12 nM in test [1].
The matching figures for `O=C(Nc1cn2cnnc2c(N2CCC(F)(F)CC2)n1)c1ccc(NS(=O)(=O)CCO)cc1N1CCC2(CC1)CC2` [Example 19, N-(8-(4,4-difluoropiperidin-1-yl)-[1,2,4]triazolo[4,3-a]pyrazin-6-yl)-4-((2-hydroxyethyl)sulfonamido)-2-(6-azaspiro[2.5]oct-6-yl)benzamide]: 18 nM, 28 nM and 13 nM.
As for `O=C(Nc1cc2cccn2c(N2CCC(F)(F)CC2)n1)c1ccc(NS(=O)(=O)CCO)cc1N1CCC2(CC1)CC2` [Example 20, N-(1-(4,4-difluoropiperidin-1-yl)pyrrolo[1,2-c]pyrimidin-3-yl)-4-(2-hydroxyethylsulfonamido)-2-(6-azaspiro[2.5]octan-6-yl)benzamide], the values for the IC50 with OVCAR3 cells and with HT29 cells were 18 nM and 23 nM, respectively.
In the case of `Cn1ccc2c(N3CCC(F)(F)CC3)nc(NC(=O)c3ccc(NS(=O)(=O)CCO)cc3N3CCC4(CC3)CC4)cc21` [Example 38], the IC50 in the test with HT29 cells is 126 nM; in test [1], 131 nM.
